Experimental data from US5599548A, “Skin care compositions containing fatty acid amides and retinol or retinyl ester” (priority 1995, dated 1997).
“Also recorded” adds a separate entry of the source. Like-named read-outs stand apart in the source and are kept apart here.

Columns and labels:
Human keratinocytes = assay: 3H-Thymidine incorporation (keratinocyte proliferation); format: cell-based; settings: for activity at 0.001 µM / activity at 0.01 µM / activity at 1 µM / activity at 0.1 µM: Homo sapiens, Keratinocyte, 24 h; for activity at 1 µM: 10^-6 M; for activity at 0.1 µM: 10^-7 M
How it was run: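 Neonatal foreskin keratinocytes (second passage, serum-free medium) were plated at 40,000 cells/well and grown to 60–70% confluence. Compounds were added in triplicate 24 h after a medium change, with 1 μCi 3H-thymidine 4 h later, followed by a further 24 h incubation. TCA-precipitated label was counted by liquid scintillation and expressed as DPM/μg protein.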

[1] = test system: TGase I (keratinocyte transglutaminase level); assay: Transglutaminase (TGase I) ELISA assay (keratinocyte differentiation); format: cell-based, human
How it was run: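 Neonatal foreskin keratinocytes plated at 3,000 cells/well, treated with compounds after 4 days for 72 h, then freeze-fractured. TGase I measured by ELISA (mouse anti-human TGase primary, peroxidase anti-mouse secondary, o-phenylene diamine substrate, A492). Secondary-only background was subtracted; values are means ±s.d. of replicates.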

[2] = Table 7A, n = 9, read-out: mean Thymidine incorp/μg protein ± s.d
[3] = Table 7A, n = 9, read-out: thymidine incorporation, % control

CCCCC/C=C\C/C=C\CCCCCCCC(=O)N(CCO)CCO [linoleoyl-DEA, Linoleoyl-Diethanolamide]
activity at 0.001 µM (Human keratinocytes; Table 2A, RA, ROH 2.5 × 10^-8 M, linoleoyl-DEA 10^-9 M, alone or combined, n = 9, read-out: thymidine incorporation, % control): 105%
activity at 0.001 µM (Human keratinocytes; Table 2A, RA, ROH 2.5 × 10^-8 M, linoleoyl-DEA 10^-9 M, alone or combined, normalized to ethanol control, n = 9, read-out: mean Thymidine incorp./μg protein ± s.d): 105 ± 15.8%
activity at 0.01 µM (Human keratinocytes; Table 3A, RA 2.5 × 10^-9 M, RP 2.5 × 10^-7 M, linoleoyl-DEA 10^-8 M, alone or combined, n = 3, read-out: thymidine incorporation, % control): 99%
activity at 1 µM (Human keratinocytes; [2]): 60.7 ± 8%
activity at 1 µM (Human keratinocytes; [3]): 61%
activity at 0.1 µM (Human keratinocytes; [2]): 101 ± 7.5%
activity at 0.1 µM (Human keratinocytes; [3]): 101%
activity at 0.01 µM (Human keratinocytes; Table 7A, 10^-8 M, n = 9, read-out: mean Thymidine incorp/μg protein ± s.d): 114 ± 20.6%
activity at 0.01 µM (Human keratinocytes; Table 7A, 10^-8 M, n = 9, read-out: thymidine incorporation, % control): 114%
activity at 0.001 µM (Human keratinocytes; Table 7A, 10^-9 M, n = 9, read-out: mean Thymidine incorp/μg protein ± s.d): 105 ± 15.8%
activity at 0.001 µM (Human keratinocytes; Table 7A, 10^-9 M, n = 9, read-out: thymidine incorporation, % control): 105%
mean Thymidine incorp./μg protein ± s.d (Human keratinocytes; Table 3A, RA 2.5 × 10^-9 M, RP 2.5 × 10^-7 M, linoleoyl-DEA 10^-8 M, alone or combined, n = 3): 1692 ± 48 DPM/μg protein
effect on keratinocyte proliferation, in words (Human keratinocytes; concentrations as in the respective Example): minor, non-significant stimulatory effect on keratinocyte proliferation; also recorded: no effect on keratinocyte proliferation
activity at 1 µM ([1]; Homo sapiens, Keratinocyte, 72 h, Table 2B, RA, ROH 2.5 × 10^-7 M, linoleoyl-DEA 10^-6 M, alone or combined, 72 h, n = 9, read-out: TGase (TG1) level, % control): 59%
activity at 1 µM ([1]; Homo sapiens, Keratinocyte, Table 3B, RA, RP 2.5 × 10^-7 M, linoleoyl-DEA 10^-6 M, alone or combined, n = 3, read-out: TGase (TG1) level, % control): 85%
activity at 1 µM ([1]; Homo sapiens, Keratinocyte, Table 8A, 10^-6 M, n = 3, read-out: TGase, % control): 87%
activity at 0.1 µM ([1]; Homo sapiens, Keratinocyte, Table 8A, 10^-7 M, n = 3, read-out: TGase, % control): 80%
activity at 0.01 µM ([1]; Homo sapiens, Keratinocyte, Table 8A, 10^-8 M, n = 3, read-out: TGase, % control): 86%
activity at 0.001 µM ([1]; Homo sapiens, Keratinocyte, Table 8A, 10^-9 M, n = 3, read-out: TGase, % control): 85%
activity at 1 µM ([1]; Homo sapiens, Keratinocyte, Table 8B, 10^-6 M, n = 3, read-out: TGase, % control): 37%
activity at 0.0001 µM ([1]; Homo sapiens, Keratinocyte, Table 8B, 10^-10 M, n = 3, read-out: TGase, % control): 66%
mean TGase ± s.d ([1]; Table 2B, RA, ROH 2.5 × 10^-7 M, linoleoyl-DEA 10^-6 M, alone or combined, 72 h, normalized to ethanol control, n = 9): 0.594 ± 0.773
mean TGase ± s.d ([1]; Table 3B, RA, RP 2.5 × 10^-7 M, linoleoyl-DEA 10^-6 M, alone or combined, n = 3): 0.186 ± 0.058
mean TGase ± s.d ([1]; Table 8A, 10^-6 M, n = 3): 0.186 ± 0.058
mean TGase ± s.d ([1]; Table 8A, 10^-7 M, n = 3): 0.175 ± 0.059
mean TGase ± s.d ([1]; Table 8A, 10^-8 M, n = 3): 0.188 ± 0.046
mean TGase ± s.d ([1]; Table 8A, 10^-9 M, n = 3): 0.185 ± 0.031
mean TGase ± s.d ([1]; Table 8B, 10^-6 M, n = 3): 0.037 ± 0.008
mean TGase ± s.d ([1]; Table 8B, 10^-10 M, n = 3): 0.080 ± 0.030
